Assay results from US20220272975A1, “COMPOSITIONS AND METHODS FOR TREATING PLANT PARASITES” (Arizona Board Regents on Bealf of the University of Arizona, priority 2019, published 2022).
Converted amounts (≈) assume the structure as drawn. Read-outs that look alike come from different tables or passages of the source. Marks after values point to notes of the source that are not given here.

Assays:
Caenorhabditis elegans = assay: whole plant or invertebrate
Experimental: (§1) Laboratory assays were carried out to assess the nematicidal activity of the above-mentioned secondary metabolites (SMs) on the infective stage (i.e. the one that infects the roots of plants) of: 1) the root-knot nematode, (M. incognita); and 2) the citrus nematode (T semipenetrans). The effect of these SMs on five beneficial soil nematode species microbivores and those involved in nutrient cycling) was also tested to make sure these compounds only affect plant parasites (only for individual SM experiments).
(§2) Five non-target nematode species includes:
(§3) two free-living bacterivores: Caenorhabditis elegans and Rhabditis blumi.
(§4) The susceptibility of test population to these SMs was assessed by constructing a dosage-mortality curve in which the dosage was plotted against the percentage mortality at a given period of time (FIGS. 1-3).
(§5) Concentration-response data for each concentration of single Photorhabdus-derived SMs and the mixtures were pooled and subjected to Probit regression analysis using the Polo Plus program (LeOra software, Petaluma, Calif.). The LC or EC values, along with corresponding 95% confidence intervals, were estimated for each single SM and SM mixture at each exposure time, depending on the experimental setting. Statistically significant differences in LC or EC values among SMs at a given exposure time period within or among nematode species were interpreted based on non-overlapping of 95% confidence intervals. For the toxicity data visualization, the relationship between percent mortality or temporary quiescence and concentration was described by a sigmoidal curve, which is fitted by the logistical function, using the statistical software package Sigmaplot for Windows, version 14.0 (Systat Software Inc., San Jose, Calif., USA).

Rhabditis blumi = assay: whole plant or invertebrate
Experimental: as §1, §2, §3, §4, §5

in vitro = assay: in vitro
Experimental: as §1, §2
(§6) three entomopathogenic species: Steinernema carpocapsae, H bacteriophora, and H sonorensis.
as §4, §5

Meloidogyne incognita = assay: In vitro nematicidal/nematistatic assay on the infective stage (J2 juveniles) of the root-knot nematode; type: in vivo; conditions: for Concentration at which nematicidal activity was observed: observational data; for LC50 / EC50: Meloidogyne incognita
Experimental: (§7) Time points for observations were at 24, 48, and 72 h after initial exposure of each SM against J2 juveniles of M. incognita and T. semipenetrans under in vitro conditions.
(§8) After assessments of individual SM toxicity, the combined toxic effects of these SMs was assayed in order to understand interaction between each SM. […] In addition, the additive index values were calculated and indicated in each Table.
(§9) When analyzing the results of combination effects of the SMs, the statistical method described by DeLorenzo and Serrano (2003) was used as follows: S=(Am/Ai)+(Bm/Bi). Where: S=sum of biological activity or total toxicant unit (TTU); Am=LC50 for compound A in the mixture; Ai=LC50 for compound A in the individual effect; Bm=LC50 for compound B in the mixture; Bi=LC50 for compound B in the individual effect. S values will be used to calculate an additive index. If S≤1.0, then the additive index=(1/S)−1.0.

[1] = system: Tylenchulus semipenetrans; assay: In vitro nematicidal/nematistatic assay on the infective stage (J2 juveniles) of the citrus nematode; type: in vivo; conditions: for Concentration at which nematicidal activity was observed: observational data; for LC50 / EC50: Tylenchulus semipenetrans
Experimental: as §7, §8, §9

Steinernema carpocapsae = assay: whole plant or invertebrate
Experimental: as §1, §2, §6, §4
Concentration-response data for each concentration of single Photorhabdus-derived SMs and the mixtures were pooled and subjected to Probit regression analysis using the Polo Plus program (LeOra software, Petaluma, Calif.). The LC or EC values, along with corresponding 95% confidence intervals, were estimated for each single SM and SM mixture at each exposure time, depending on the experimental setting. […]

[2] = system: NCI-H460 human non-small cell lung cancer; assay: Human cytotoxicity (MTT) assay; type: cell-based; conditions: for % Inh. NCI-H460: Conc. 200 µM
Experimental: (§10) This Example describes human cytotoxicity of individual SMs. […] Three cancer cell lines (NCI-H460 human non-small cell lung cancer, SF-268 human central nervous system glioma, and MCF-7 human breast cancer) were used that are routinely use as “sentinels” (if a compound is cytotoxic, then at least one of these are usually killed). HFF cells (human foreskin normal cells, not cancer cells) was also used as a “control”.
(§11) Tested concentrations of these SMs increased at 50, 100 uM, then at 200 uM (Table 7).

[3] = system: MCF-7 human breast cancer; assay: Human cytotoxicity (MTT) assay; type: cell-based; conditions: for % Inh. MCF-7: after 72 hours, Conc. 200 µM
Experimental: as §10, §11

[4] = system: HFF cells (human foreskin normal cells); assay: Human cytotoxicity (MTT) assay; type: cell-based; conditions: after 72 hours; for % Inh. HFF: Conc. 200 µM
Experimental: as §10, §11

[5] = system: SF-268 human central nervous system glioma; assay: Human cytotoxicity (MTT) assay; type: cell-based; conditions: for % Inh. SF-268: after 72 hours, Conc. 200 µM
Experimental: as §10, §11

H. sonorensis = assay: animal or person; conditions: read-out: EC50 (effective concentration causing 50% reversible nematode paralysis, temporary quiescence)
Experimental: as §1, §2, §6, §4, §5

H. bacteriophora = assay: whole plant or invertebrate; conditions: Heterorhabditis bacteriophora, read-out: EC50 (effective concentration causing 50% reversible nematode paralysis, temporary quiescence)
Experimental: as §1, §2, §6, §4, §5

[6] = M. incognita, in vitro, 24 h exposure
[7] = read-out: LC50 (lethal concentration causing 50% nematode death), Table 5: individual compounds or compound mixtures, J2 juveniles of M. incognita, in vitro
[8] = T. semipenetrans, in vitro, 24 h exposure
[9] = read-out: LC50 (lethal concentration causing 50% nematode death), Table 6: individual compounds or compound mixtures, J2 juveniles of T. semipenetrans, in vitro

## O=C(O)CC/C=C/c1ccccc1 [PPA, (4E)-5-phenylpent-4-enoic acid]
Caenorhabditis elegans; C. elegans, in vitro
  LC50 (lethal concentration causing 50% nematode death): 278 µg/mL (≈ 1580 µM)
Rhabditis blumi; R. blumi, in vitro
  LC50 (lethal concentration causing 50% nematode death): 346 µg/mL (≈ 1960 µM)
In vitro; H. bacteriophora
  LC50: > 400 µg/mL
In vitro; H. sonorensis, whole H. sonorensis nematodes (non-target entomopathogenic)
  LC50: > 400 µg/mL
Meloidogyne incognita; [6]
  LC50 (lethal concentration causing 50% nematode death): 44.4 (38.8-48.6) μg mL^−1
Meloidogyne incognita; M. incognita
  Concentration at which nematicidal activity was observed: ≥ 40 µg/mL
Meloidogyne incognita; read-out: LC50 (concentration required to kill 50% nematode population), M. incognita, 24 h of exposure
  LC50: 44 µg/mL
Meloidogyne incognita; read-out: LC50 (lethal concentration causing 50% nematode death), M. incognita, in vitro, 24 h exposure
  LC50: 44.4 µg/mL
Meloidogyne incognita; [7]
  LC50: 44.4 µg/mL
Meloidogyne incognita; J2 juveniles of M. incognita (RKN), 48 h exposure, read-out: LC50 (95% confidence interval)
  LC50: 42 µg/mL
Meloidogyne incognita; J2 juveniles of M. incognita (RKN), 72 h exposure, read-out: LC50 (95% confidence interval)
  LC50: 38.9 µg/mL
[1]; [8]
  LC50 (lethal concentration causing 50% nematode death): 66.3 (50.7-73.4) μg mL^−1
[1]; T. semipenetrans
  Concentration at which nematicidal activity was observed: ≥ 40 µg/mL
[1]; read-out: LC50 (concentration required to kill 50% nematode population), T. semipenetrans, 24 h of exposure
  LC50: 66 µg/mL
[1]; read-out: LC50 (lethal concentration causing 50% nematode death), T. semipenetrans, in vitro, 24 h exposure
  LC50: 66.3 µg/mL
[1]; [9]
  LC50: 66.3 µg/mL
[1]; J2 juveniles of T. semipenetrans (CN), 48 h exposure, read-out: LC50 (95% confidence interval)
  LC50: 59.8 µg/mL
[1]; J2 juveniles of T. semipenetrans (CN), 72 h exposure, read-out: LC50 (95% confidence interval)
  LC50: 42.2 µg/mL
Steinernema carpocapsae; S. carpocapsae, in vitro
  LC50 (lethal concentration causing 50% nematode death): >400^e μg mL^−1
[2]; MTT, after 72 hours
  % Inh. NCI-H460: 3.97%
[3]
  % Inh. MCF-7: −5.35%
[4]
  % Inh. HFF: 22.6%
[5]
  % Inh. SF-268: 7.76%

## c1ccc2[nH]ccc2c1 [ID, indole]
Caenorhabditis elegans; Caenorhabditis elegans, read-out: EC50 (effective concentration causing 50% reversible nematode paralysis, temporary quiescence)
  EC50: 159 µg/mL (≈ 1360 µM)
Rhabditis blumi; Metarhabditis blumi, read-out: EC50 (effective concentration causing 50% reversible nematode paralysis, temporary quiescence)
  EC50: 37 µg/mL (≈ 316 µM)
H. sonorensis
  EC50: > 400 µg/mL
H. bacteriophora
  EC50: > 400 µg/mL
Meloidogyne incognita; M. incognita
  Concentration at which nematistatic activity (reversible quiescence) was induced: > 40 µg/mL
  Concentration at which nematicidal activity was observed: ≥ 300 µg/mL
Meloidogyne incognita; [6]
  EC50 (effective concentration causing 50% reversible nematode paralysis, temporary quiescence): 56.3 (52.9-59.6) μg mL^−1
Meloidogyne incognita; read-out: EC50 (concentration required to immobilize 50% of nematode population), M. incognita
  EC50: 56 µg/mL
Meloidogyne incognita; read-out: EC50 (effective concentration causing 50% reversible nematode paralysis, temporary quiescence), M. incognita, in vitro, 24 h exposure
  EC50: 56.3 µg/mL
Meloidogyne incognita; [7]
  LC50: 307 µg/mL
Meloidogyne incognita; J2 juveniles of M. incognita (RKN), 48 h exposure, read-out: EC50 (95% confidence interval), reversible paralysis
  EC50: 61.3 µg/mL
Meloidogyne incognita; J2 juveniles of M. incognita (RKN), 72 h exposure, read-out: EC50 (95% confidence interval), reversible paralysis
  EC50: 76.3 µg/mL
Meloidogyne incognita; M. incognita, ID alone and SM mixtures, exposure time not given, read-out: LC50
  LC50: 307 µg/mL
[1]; T. semipenetrans
  Concentration at which nematistatic activity (reversible quiescence) was induced: > 10 µg/mL
  Concentration at which nematicidal activity was observed: ≥ 300 µg/mL
[1]; [8]
  EC50 (effective concentration causing 50% reversible nematode paralysis, temporary quiescence): 37.1 (28.7-43.4) μg mL^−1
[1]; read-out: EC50 (concentration required to immobilize 50% of nematode population), T. semipenetrans
  EC50: 37 µg/mL
[1]; read-out: EC50 (effective concentration causing 50% reversible nematode paralysis, temporary quiescence), T. semipenetrans, in vitro, 24 h exposure
  EC50: 37.1 µg/mL
[1]; [9]
  LC50: 388 µg/mL
[1]; J2 juveniles of T. semipenetrans, 48 h exposure, read-out: EC50 (95% confidence interval), reversible paralysis
  EC50: 66.2 µg/mL
[1]; J2 juveniles of T. semipenetrans, 72 h exposure, read-out: EC50 (95% confidence interval), reversible paralysis
  EC50: 68.3 µg/mL
[1]; T. semipenetrans, ID alone and SM mixtures, exposure time not given, read-out: LC50
  LC50: 388 µg/mL
Steinernema carpocapsae; Steinernema carpocapsae, read-out: EC50 (effective concentration causing 50% reversible nematode paralysis, temporary quiescence)
  EC50: > 400 µg/mL
[2]; MTT, after 72 hours
  % Inh. NCI-H460: 30.5%
[2]; at 200 uM
  Toxicity against NCI-H460: 30.5%
[3]
  % Inh. MCF-7: 5.31%
[4]
  % Inh. HFF: 4.64%
[5]
  % Inh. SF-268: 20.2%

## O=C(O)/C=C/c1ccccc1 [TCA, trans-cinnamic acid]
[3]
  % Inh. MCF-7: 2.59%
[4]
  % Inh. HFF: 10.8%
[5]
  % Inh. SF-268: 13.0%

## COc1cccc2c1C(=O)c1c(O)c3c(c(O)c1C2=O)C[C@@](O)(C(=O)CO)C[C@@H]3O[C@H]1C[C@H](N)[C@H](O)[C@H](C)O1 [Doxorubicin, reference compound]
[2]; Homo sapiens, NCI-H460, MTT, after 72 hours, Conc. 1 μM (+ control), read-out: % Inh. NCI-H460
  inhibition at 1 µM: 97.2%
[3]; Homo sapiens, MCF7, after 72 hours, Conc. 1 μM (+ control), read-out: % Inh. MCF-7
  inhibition at 1 µM: 64.1%
[4]; Homo sapiens, HFF, Conc. 1 μM (+ control)
  inhibition at 1 µM: 64.9%
[5]; Homo sapiens, SF-268, after 72 hours, Conc. 1 μM (+ control), read-out: % Inh. SF-268
  inhibition at 1 µM: 86.7%
